Experimental data published in US5624673A, “Cosmetic or pharmaceutical composition containing a prunella extract” (priority 1993, dated 1997).
“And” between values parts separate entries of the source, which are not always exact repeats. Identical values can stand only once.

Test system: erythema caused by ultraviolet
Experiment: Anti-inflammatory activity on the erythema caused by ultraviolet
Type: in vivo, Dunkin Hartley guinea-pigs
Settings: 1% in hydrocerine
Method: This is investigated using 41 female Dunkin Hartley guinea-pigs weighing 400 to 450 g, divided into 6 groups of 6 and one group of 5 guinea-pigs.
For one week before the start of the experiment, the animals are kept at a temperature of 20° plus or minus 1° C. and at a hygrometry of 50% plus or minus 10% and with 12 h of light per day. On the day before the experiment, the animals are carefully shaved on the back using an AESCULAP shaver equipped with a 1/10 mm comb, and then shaved gently on both sides using a Braun razor. A depilating cream is subsequently applied (to a thickness of about 2 mm) and allowed to work for 15 min.
The cream is removed with a wooden spatula and the guinea-pigs are then rinsed with tepid water and dried.
The guinea-pigs then receive the same irradiation on both sides, the area of the irradiated regions being 2 cm^2. The right side receives the test product, the product being spread beyond the 2 cm^2 so as to make it possible to observe any redness which might be due to the product and which would mask an antiphlogistic effect. The left side receives the placebo.
Application of the placebo to the left side enables the effect of UV to be measured under the same conditions on the zones treated with the product and on the untreated zones. This also makes it possible to see any action of the placebo and to assess, in comparison with the placebo, the zone to which the product has been applied.
The products are applied immediately after irradiation and then every 2 h up to 6 h after irradiation.
The amount applied is not measured but is spread uniformly over the whole region (about 1 mg).
The irradiation device used consists of a Biotronic UV312-365 mercury lamp (Vilbert-Loumat). The device for measuring the UV energy, which consists of a photoelectric cell measuring the luminous power of the UV, is fixed to a support at the center of the irradiated zone. This cell is connected to a radiometer on which the desired energy--in this case 2.16 J/cm^2 of UVB (distance from guinea-pig to lamp=20 cm)--is programmed. The lamp switches off automatically once the total amount of energy has been emitted.
This irradiation causes an erythema equal to 3 plus or minus 0.5 (see scale) at 6 h.
20 min before irradiation, the animals are anesthetized with an intraperitoneal dose of 0.5 ml/kg of pentobarbital sodium.
Six hours after irradiation, the erythema in each region is evaluated macroscopically according to the following scale:
0 ............... no erythema
1 ............... slight but visible erythema
2 ............... clearly visible erythema
3 ............... substantial erythema
One guinea-pig with a score of 1 according to the above notation, one guinea-pig with a score of 2 and one guinea-pig with a score of 3 are singled out after having been thoroughly evaluated as such, and are taken as standard references so that half-unit scores can be awarded. A guinea-pig not evaluated with 1 (standard reference) and not evaluated with 2 will be given a score of 1.5.
The results obtained are used to calculate the percentage activity according to the following formula: [formula]
The tested extracts according to the invention are in a concentration of 0.2% by weight in the gel. The indomethacin is in a concentration of 1% in the hydrocerine.

Question: For `COc1ccc2c(c1)c(CC(=O)O)c(C)n2C(=O)c1ccc(Cl)cc1` [Indomethacin, indomethacin], which “difference (UV+placebo)-(UV+product), individual animal” value is on record?
Answer: The value was 2.5 and 2 and 3.

Question: And the “Erythema score, product side (individual animal)” value (6 h after UVB 2.16 J/cm^2, scale 0-3)?
Answer: The value was 0.5 and 1 and 0.

Question: And the “Erythema score, product side, mean” value (SD 0.41, placebo mean 2.9, significant at 0.1% (Student t 11.18))?
Answer: Its value is 0.4.

Question: What about the “difference (UV+placebo)-(UV+product), mean” value (SD 0.5) of the same compound?
Answer: The value was 2.5.

Question: What about the “protection (percentage activity)” value (significant at 0.1%) of the same compound?
Answer: The value was 86.2%.
